± gives the standard deviation of the reports.

For `*C(*)(F)Cl` (repeat unit), the glass transition temperature came out at 77.00 °C. As for `*C(*)C(=O)OCC` (repeat unit), the glass transition temperature worked out at 13.50 °C. In the case of `*C(=O)c1ccc2c(c1)C(=O)N(c1c(C)cc(C)c(N3C(=O)c4ccc(*)cc4C3=O)c1C)C2=O` (repeat unit), the glass transition temperature is 404.00 ± 8.5 °C. As for `*C(=O)c1ccc2c(c1)C(=O)N(c1c(CC)cc(Cc3cc(CC)c(N4C(=O)c5ccc(*)cc5C4=O)c(CC)c3)cc1CC)C2=O` (repeat unit), the figure is 272.50 ± 33 °C. `*C(=O)c1ccc2c(c1)C(=O)N(c1ccc(C(=O)c3cccc(N4C(=O)c5ccc(*)cc5C4=O)c3)cc1)C2=O` (repeat unit) returned a glass transition temperature of 282.00 ± 3 °C. As for `*C(=O)c1ccc2c(c1)C(=O)N(c1ccc(Cc3ccc(N4C(=O)c5ccc(*)cc5C4=O)c(C)c3)cc1C)C2=O` (repeat unit), the figure is 297.50 ± 18 °C; as for `*C(=O)c1ccc2c(c1)C(=O)N(c1ccc(Oc3ccc(C(C)(C)c4ccc(Oc5ccc(N6C(=O)c7ccc(*)cc7C6=O)cc5)cc4)cc3)cc1)C2=O` (repeat unit), 256.00 ± 71 °C.

`*C(=O)c1ccc2c(c1)C(=O)N(c1cccc(N3C(=O)c4ccc(*)cc4C3=O)c1)C2=O` (repeat unit) gave a glass transition temperature of 300.00 ± 9 °C. As for `*C(C(=O)OC)C(*)C(=O)OC(C)(C)C` (repeat unit), the glass transition temperature stood at 84.00 °C. Take `*C(C)C(*)C(=O)OC(C)C` (repeat unit): the glass transition temperature stood at 149.00 °C. As for `*C(C)C(*)C(=O)OC12CC3CC(C)(CC(C)(C3)C1)C2` (repeat unit), the figure is 194.50 °C. Turning to `*C(F)(F)C(*)(F)C(F)(F)F` (repeat unit), the glass transition temperature was found to be 158.50 °C.

For `*C(F)(F)C(*)(F)OC(F)(F)C(F)(F)C(F)(F)C(F)(F)F` (repeat unit), the glass transition temperature is -10.00 °C.

`*C(F)(F)C(*)(F)OC(F)C(F)F` (repeat unit): the glass transition temperature was 35.00 °C. With `*C(F)(F)C(*)(OC(F)(F)F)OC(F)(F)F` (repeat unit), the glass transition temperature is -60.00 °C. In turn, `*C(F)(F)C1(*)OC(F)(F)C(F)(C(F)(F)F)O1` (repeat unit) registered a glass transition temperature of 135.00 °C. `*C(F)(F)C1(*)OC(F)(F)C(F)(F)O1` (repeat unit) displayed a glass transition temperature of 108.00 °C. Consider `*C(F)(F)C1(F)C(F)(F)C(*)(F)C(F)(F)C(F)(Cl)C1(F)F` (repeat unit), for which the glass transition temperature is 147.00 °C. In turn, `*C(F)(F)C1(F)C(F)(F)C(*)(F)C(F)(F)C(F)(F)C(F)(F)C1(F)F` (repeat unit) came in with a glass transition temperature of 198.00 °C.

Consider `*C(F)(F)C1(F)C(F)(F)C(*)(F)C(F)(F)C(F)(F)C1(F)F` (repeat unit), for which the glass transition temperature stood at 101.00 °C. In turn, `*C(F)C(*)(F)F` (repeat unit) registered a glass transition temperature of 31.5 °C.

Regarding `*C(F)C(*)C(F)(F)F` (repeat unit), the glass transition temperature stood at 87.00 °C.

On to `*C([2H])([2H])C(*)([2H])C([2H])([2H])[2H]` (repeat unit), for which the glass transition temperature was found to be 0.00 °C. In turn, `*C1(C)CC(*)(C)C(=O)N(C)C1=O` (repeat unit) yielded a glass transition temperature of 170.00 °C. The compound `*C1C(=O)N(C(C)(C)C)C(=O)C1*` (repeat unit) had a glass transition temperature of 195.00 °C. In turn, `*C1C(=O)N(C(C)CC)C(=O)C1*` (repeat unit) showed a glass transition temperature of 205.00 °C. The compound `*C1C(=O)N(CCCOc2ccc(-c3ccc(C#N)cc3)cc2)C(=O)C1*` (repeat unit) came in with a glass transition temperature of 130.00 °C.

`*C1C(=O)N(CCOc2ccc(-c3ccc(C#N)cc3)cc2)C(=O)C1*` (repeat unit) showed a glass transition temperature of 150.00 °C. `*C1C(=O)N(c2c(CC)cccc2CC)C(=O)C1*` (repeat unit) gave a glass transition temperature of 288.00 °C. In turn, `*C1C(=O)N(c2cc(Br)c(O[Si](C)(C)C(C)(C)C)c(Br)c2)C(=O)C1*` (repeat unit) displayed a glass transition temperature of 164.00 °C.

`*C1C(=O)N(c2cc(Br)c(O[Si](CC)(CC)CC)c(Br)c2)C(=O)C1*` (repeat unit) gave a glass transition temperature of 160.00 °C. The compound `*C1C(=O)N(c2cc(Br)c(O[Si](c3ccccc3)(c3ccccc3)c3ccccc3)c(Br)c2)C(=O)C1*` (repeat unit) gave a glass transition temperature of 179.00 °C. Take `*CC(c1ccccc1)C1C(=O)OC(=O)C1*` (repeat unit): the glass transition temperature was determined as 212.00 °C. In turn, `*CC/C=C(/*)C(C)(C)C` (repeat unit) returned a glass transition temperature of 20.00 °C.

`*CC/C=C(/*)c1ccccc1` (repeat unit) gave a glass transition temperature of 39.50 °C. The compound `*CCC/C=C(/*)c1ccc(Cl)cc1` (repeat unit) gave a glass transition temperature of 16.00 °C.

As to `*Oc1ccc(C2(c3ccc(Oc4ccc(C(=O)c5ccccc5-c5ccccc5C(=O)c5ccc(*)cc5)cc4)cc3)c3ccccc3-c3ccccc32)cc1` (repeat unit), the glass transition temperature worked out at 229.00 °C. Take `*Oc1ccc(Oc2ccc(C(=O)c3ccc(*)cc3)cc2)cc1` (repeat unit): the glass transition temperature came to 146 ± 1.3 °C.

Compound `*c1cc(CCCC)c(*)s1` (repeat unit) returned a glass transition temperature of 54.50 ± 6.4 °C. The compound `*c1cc(CCCCCC)c(*)s1` (repeat unit) had a glass transition temperature of 15.2 ± 7.3 °C. On to `*c1ccc(-c2ccc(N3C(=O)c4ccc(-c5ccc6c(c5)C(=O)N(*)C6=O)cc4C3=O)cc2C(F)(F)F)c(C(F)(F)F)c1` (repeat unit), for which the glass transition temperature amounted to 323.8 ± 24 °C. As for `*c1ccc(C2(c3ccc(N4C(=O)C(c5ccccc5)=C(c5ccc(C6=C(c7ccccc7)C(=O)N(*)C6=O)cc5)C4=O)cc3)c3ccccc3-c3ccccc32)cc1` (repeat unit), the figure is 340.00 °C; as for `*c1ccc(Cc2ccc(N3C(=O)c4ccc(-c5ccc6c(c5)C(=O)N(*)C6=O)cc4C3=O)cc2)cc1` (repeat unit), 308.00 ± 6.8 °C. On to `*c1ccc(Oc2ccc(-n3c(=O)c4cc5c(=O)n(*)c(=O)c5cc4c3=O)cc2)cc1` (repeat unit), for which the glass transition temperature is 385.00 ± 20 °C. Turning to `*c1ccc(Oc2ccc(C(c3ccc(Oc4ccc(N5C(=O)c6ccc(-c7ccc8c(c7)C(=O)N(*)C8=O)cc6C5=O)cc4)cc3)(C(F)(F)F)C(F)(F)F)cc2)cc1` (repeat unit), the glass transition temperature was 249.50 ± 18 °C.

Turning to `*c1ccc(Oc2ccc(Oc3ccc(-n4c(=O)c5cc6c(=O)n(*)c(=O)c6cc5c4=O)cc3)cc2)cc1` (repeat unit), the glass transition temperature stood at 292.00 ± 28 °C. Regarding `*c1ccc(Oc2ccc(Oc3ccc(N4C(=O)C(c5ccccc5)=C(c5ccc(C6=C(c7ccccc7)C(=O)N(*)C6=O)cc5)C4=O)cc3)cc2)cc1` (repeat unit), the glass transition temperature was found to be 267.00 °C. `*c1ccc(Oc2ccc(Oc3ccc(N4C(=O)c5ccc(-c6ccc7c(c6)C(=O)N(*)C7=O)cc5C4=O)cc3)cc2)cc1` (repeat unit) displayed a glass transition temperature of 278.00 ± 14 °C.

On to `*c1ccc(Oc2cccc(Oc3ccc(N4C(=O)c5ccc(Oc6ccc7c(c6)C(=O)N(*)C7=O)cc5C4=O)cc3)c2)cc1` (repeat unit), for which the glass transition temperature came out at 208.2 ± 12 °C. `*c1ccc(S(=O)(=O)c2ccc(N3C(=O)c4ccc(-c5ccc6c(c5)C(=O)N(*)C6=O)cc4C3=O)cc2)cc1` (repeat unit) registered a glass transition temperature of 340.00 ± 14 °C. For `*c1ccc(S(=O)(=O)c2ccc(N3C(=O)c4ccc(Oc5ccc6c(c5)C(=O)N(*)C6=O)cc4C3=O)cc2)cc1` (repeat unit), the glass transition temperature is 286.00 ± 34 °C. For the compound `*c1ccc2c(c1)C(=O)N(c1cc(N3C(=O)c4ccc(C(*)(C(F)(F)F)C(F)(F)F)cc4C3=O)cc(C(F)(F)F)c1)C2=O` (repeat unit), the glass transition temperature was determined as 290.50 ± 9.2 °C. With `*c1ccc2c(c1)C(=O)N(c1ccc(-c3ccc(N4C(=O)c5ccc(C(*)(C(F)(F)F)C(F)(F)F)cc5C4=O)cc3C(F)(F)F)c(C(F)(F)F)c1)C2=O` (repeat unit), the glass transition temperature came to 327.00 ± 18 °C. In turn, `*c1ccc2c(c1)C(=O)N(c1ccc(Oc3ccc(C(C)(C)c4ccc(Oc5ccc(N6C(=O)c7ccc(C(*)(C(F)(F)F)C(F)(F)F)cc7C6=O)cc5)cc4)cc3)cc1)C2=O` (repeat unit) had a glass transition temperature of 246.70 ± 3.3 °C. As for `*c1ccc2c(c1)C(=O)N(c1ccc(Oc3ccc(C(c4ccc(Oc5ccc(N6C(=O)c7ccc(C(*)(C(F)(F)F)C(F)(F)F)cc7C6=O)cc5)cc4)(C(F)(F)F)C(F)(F)F)cc3)cc1)C2=O` (repeat unit), the figure is 247.00 ± 16 °C; as for `*c1ccc2c(c1)C(CC(CC)CCCC)(CC(CC)CCCC)c1cc(*)ccc1-2` (repeat unit), 44.00 ± 21 °C. `*c1ccc2c(c1)C(CCCCCCCC)(CCCCCCCC)c1cc(-c3ccc(*)c4nsnc34)ccc1-2` (repeat unit) displayed a glass transition temperature of 113.2 ± 1.8 °C. As to `*c1ccc2oc(-c3cc(OCCCCCCCCCC)c(-c4nc5cc(C(*)(C(F)(F)F)C(F)(F)F)ccc5o4)cc3OCCCCCCCCCC)nc2c1` (repeat unit), the glass transition temperature came out at 94.00 °C.

Regarding `*c1cccc(Oc2cccc(-n3c(=O)c4cc5c(=O)n(*)c(=O)c5cc4c3=O)c2)c1` (repeat unit), the glass transition temperature was found to be 285.2 ± 2.5 °C. Consider `*c1cccc(Oc2cccc(Oc3cccc(N4C(=O)c5ccc(Oc6ccc7c(c6)C(=O)N(*)C7=O)cc5C4=O)c3)c2)c1` (repeat unit), for which the glass transition temperature is 193.00 ± 8.5 °C.

The compound `*c1nc(-c2ccccc2)nc(N(CCCCCCN(*)c2ccccc2)c2ccccc2)n1` (repeat unit) gave a glass transition temperature of 74.00 °C. As for `*c1nc(C)nc(N(CCCCCCCCCCN(*)c2ccccc2)c2ccccc2)n1` (repeat unit), the figure is 48.00 °C; as for `*c1nnc(-c2sc(-c3nnc(-c4cc(OCCCCCCCC)c(*)cc4OCCCCCCCC)o3)cc2CCCCCCCC)o1` (repeat unit), 124.30 °C.

For the compound `*c1sc(*)c(CCCCCCN(CC)c2ccc(/N=N/c3ccc([N+](=O)[O-])cc3)cc2)c1CCCCCC` (repeat unit), the glass transition temperature was found to be 17.00 °C.
